Measured values: US8986696B2, “Trans-capsular administration of p38 map kinase inhibitors into orthopedic joints” (DePuy Mitek, Inc., priority 2007, dated 2015)
Entries after “also recorded” stand apart in the source; their conditions may differ.

Tests used:
[1] = tested on: injured cartilage explants, PGE2 synthesis; experiment: drop tower design model: PGE2 synthesis; format: cell-based, bovine; conditions: cocktail of cytokines
From the text: The device comprises a vertical rail that guides a sliding weight from 0.1 kg to 3 kg directly onto a force transducer which is situated at the bottom of the device. A sphere-shaped 2 mm indenter resting on a specimen is located at the bottom of the vertical rail. The indenter is held by a stop screw. The specimen is rigidly attached to a tissue holder underneath the indenter, to avoid side movements, the specimen is rigidly attached to the tissue holder. In this manner, the force transducer transduces a force indirectly onto the specimen. Adjusting the weight of a mass and height from which the mass drops varies the magnitude of the intended impact. For example, a weight mass (e.g., […]) held by a weight holder can be released from a height of e.g., 36 cm and dropped onto the force transducer. […]
In the first method, bovine or human PBMCs were freshly prepared using Ficoll gradient by Lampire Biological Laboratories, Inc. PBMCs in RPMI w/10% FCS at delivery were spun down at 1500 rpm for twenty minutes and the cell pellet was washed twice with 1×PBS to wash off the residual Ficoll. […] Each conditioned medium was assessed for levels of pro-inflammatory cytokines to ensure their secretion from PBMC. […]
PGE2 was measured with STAT-Prostaglandin E2 EIA ELISA kit (Cayman Biochemicals), as described in Example III above. […]

[2] = tested on: IL-1β-stimulated NO production, bovine chondrocyte pellets / ARC tissues; experiment: chondrocyte pellet culture model: total nitrite/nitrate (NO); format: cell-based; conditions: ARC, 7.5 ng/ml IL-1, five days; JNJ 7706621 at 5 μM
From the text: (§1) Calf articular cartilage was obtained from the knee joints of eight to twelve month old animals and was processed within twenty-four hours after sacrifice. After removal of muscle and ligament, the cartilage was kept moist using phosphate buffer solution (PBS) to prevent tissue dehydration, and was aseptically peeled off from subchondral bone with a scalpel, and the cartilage pieces were further minced into smaller pieces (˜0.3-0.5×˜0.2-0.5 cm cubes). […] Chondrocytes were then enzymatically isolated from the tissue by incubation for overnight at 37° C. with gentle agitation in 0.2% collagenase in Dulbecco's modified eagle media (DMEM). After removal of tissue debris by filtration through cell strainer and the residual collagenase by 3× wash in PBS, cells were finally resuspended at a density of 2.5×10^6 cells/ml in chondrocyte medium. A 1 ml aliquot of the cell suspension was dispensed into either a 15 ml Falcon centrifuge tube or a 96 deep-well plate and centrifuged at 2000×g for five minutes. The chondrocyte pellets were incubated at 37° C. in a humidified atmosphere of 5% CO2 for two to three weeks with a medium change every other day.
(§2) As an alternative to using calf articular cartilage, a commercial Alginate Recovered Chondrocytes (ARC) system was also used (Articular Engineering, LLC (Northbrook, Ill.)). Use of the commercial system cut down on labor and time in producing chondrocyte pellet. This system produced cartilaginous tissue in vitro using bovine chondrocytes. The first step consisted of culturing chondrocytes in alginate under conditions optimal for the formation of a cell-associated matrix (CM). The second step allowed these cells with their CM, after recovery, to rapidly form and become integrated into a solid mass of cartilage on a porous insert within two weeks. This tissue is rich in cells surrounded by a cell-associated matrix that is degraded rapidly when the cells are exposed to IL-1. ARC tissues in 3 mm punches at delivery were first dispensed into a 96 deep-well plate, one punch per well, for compound treatment. The subsequent procedures were the same as those used for the chondrocyte pellets.
(§3) Chondrocyte pellets were washed once with 1 ml of Chondrocyte Stimulation Medium and equilibrated in the same medium at room temperature for fifteen to thirty minutes. Compounds were dissolved in H2O, Ethanol or dimethyl sulfoxide (DMSO) (10^−2 M) according to suppliers' instructions and further diluted with Chondrocyte Stimulation Medium to the required concentrations. DMSO concentrations in the culture media should not exceed 1%; this concentration of DMSO has no effect on cartilage proteoglycan metabolism in response to cytokines.
(§4) The pellets were first treated with compounds at desired concentrations at 37° C. for one hour and then incubated for three to five days in the absence or presence of 10 ng/ml of IL-1β. At the end of the incubation, media and pellets were harvested and frozen for further analysis. Pellets were also fixed as needed in 4% (w/v) paraformaldehyde in PBS for histology analysis.
Nitrate/Nitrite levels were measured using the Griess reaction (Green L. C. et al., “Analysis of Nitrate, Nitrite, and [15N]nitrate in Biological Fluids,” Anal. Biochem. 126: 131-138 (1982)) with aNitrate/Nitrite Colorimetric Assay Kit (Cayman Chemicals), the contents of which are incorporated herein by reference. The assay involved a simple two-step process. The first step involved conversion of nitrate in 50 μl of culture medium to nitrite utilizing nitrate reductase in a reaction volume of 100 μl at room temperature for two hours. The second step involved the addition of 50 μl of both Griess Reagent 1 and 2, which converted nitrite into a deep purple azo compound in ten minutes. Photometric measurement of the absorbance at 540 or 550 nm due to this azo chromophore accurately determined nitrite concentration. […]

[3] = tested on: human tumor xenograft models; experiment: human tumor xenograft models; conditions: in vivo
[4] = tested on: chondrocytes; format: cell-based
From the text: as §1, §2, §3, §4
The LDH activity was determined colorimetrically in an enzymatic test based on the conversion of lactic acid to pyruvate in the presence of chromagenic substrate tetrazolium salt INT that was reduced to formazan.

[5] = tested on: human cancer cell lines; experiment: cell proliferation in culture; format: cell-based; conditions: in 9 cell lines, read-out: inhibits cell proliferation in culture IC50
[6] = tested on: IL-1β-stimulated GAG release, bovine chondrocyte pellets / ARC tissues; experiment: chondrocyte pellet culture model: GAG degradation; format: cell-based; conditions: ARC, 7.5 ng/ml IL-1, five days; JNJ 7706621 at 5 μM
From the text: as §1, §2, §3
[…] At the end of the incubation, media and pellets were harvested and frozen for further analysis. Pellets were also fixed as needed in 4% (w/v) paraformaldehyde in PBS for histology analysis.
(§5) Glycosaminoglycan (GAG) levels in the culture media were determined by measuring the amount of polyanionic material reacting with 1,9-dimethylmethylene blue (DME) as detected by absorbance at 525 nm, using shark chondroitin sulfate as a standard. The DME blue dye-binding solution was prepared by dissolving 16 mg of DME blue in a solution containing 0.304% glycine, 0.23% sodium chloride (NaCl), 9.5 mM hydrochloric acid (HCl), pH=3.0 with absorbance at 525 equal to 0.31. Proteoglycans and proteoglycan metabolites in chondrocyte pellet were released by digesting the pellet with 125 μg/ml of papain in 0.1 M PBS, pH 6.0, 5 mM cysteine, 5 mM ethylene-diamine-tetra-acetic acid disodium salt (Na2EDTA) at 50° C. for overnight. Results are reported as either micrograms of GAG per milliliter or percent of total GAG released into culture medium.

[7] = tested on: IL-1β-stimulated PGE2 synthesis, bovine chondrocyte pellets / ARC tissues; experiment: chondrocyte pellet culture model: PGE2; format: cell-based
From the text: as §1, §2, §3, §4
(§6) Prostaglandin E2 (PGE2) was measured with a STAT-Prostaglandin E2 EIA ELISA kit (Cayman Biochemicals). This assay is based on the competition between PGE2 from 50 μl samples and a PGE2-alkaline phosphatase conjugate for a limited amount of PGE2 monoclonal antibody in a reaction volume of 150 μl at room temperature for one hour. The antibody-PGE2 complex bound to a goat polyclonal anti-mouse IgG that had been previously attached to the well. After washing to remove any unbound reagents, para-nitrophenyl phosphate (pNPP) was added to the well. The product of this enzymatic reaction absorbs strongly at 412 nm. Because of the large range in response to IL-1β and other cytokines, PGE2 values were converted to log scale prior to doing t-tests.

[8] = tested on: cytokine-stimulated NO production, human ARC tissues; experiment: human ARC tissues: NO production; format: cell-based
Description: Nitrate/Nitrite levels were measured using the Griess reaction (Green L. C. et al., “Analysis of Nitrate, Nitrite, and [15N]nitrate in Biological Fluids,” Anal. Biochem. 126: 131-138 (1982)) with aNitrate/Nitrite Colorimetric Assay Kit (Cayman Chemicals), the contents of which are incorporated herein by reference. The assay involved a simple two-step process. The first step involved conversion of nitrate in 50 μl of culture medium to nitrite utilizing nitrate reductase in a reaction volume of 100 μl at room temperature for two hours. The second step involved the addition of 50 μl of both Griess Reagent 1 and 2, which converted nitrite into a deep purple azo compound in ten minutes. Photometric measurement of the absorbance at 540 or 550 nm due to this azo chromophore accurately determined nitrite concentration. This assay kit cannot be used for RPMI (Roswell Park Memorial Institute) derived tissue culture medium due to interference with the colorimetric reaction.
® infliximab is a monoclonal antibody against human TNFα. To test whether […]® could modulate cytokine-stimulated responses in chondrocytes, human chondrocyte pellets were first tested for an optimal concentration for cytokine stimulation. Human ARC (i.e., ARCs generated using human chondrocytes) tissues were treated with various concentrations of either TNF or IL-1 for four and five days. […]

[9] = tested on: cytokine-stimulated PGE2 synthesis, human ARC tissues; experiment: human ARC tissues: PGE2 synthesis; format: cell-based; conditions: for PGE2 Inhibition: TNFα stimulated responses
Description: as §6
(§7) ® infliximab is a monoclonal antibody against human TNFα. To test whether […]® could modulate cytokine-stimulated responses in chondrocytes, human chondrocyte pellets were first tested for an optimal concentration for cytokine stimulation. Human ARC (i.e., ARCs generated using human chondrocytes) tissues were treated with various concentrations of either TNF or IL-1 for four and five days. The culture media was collected for measurement of GAG content as described above. Other assays were performed as described above. Cytokine dosage at 5 ng/ml and treatment for five days gave a reasonable treatment window, yet was not too challenging for compound efficacy (FIG. 4).
(§8) Human ARC tissues were then treated with various concentrations of […]® in the presence or absence of either 10 ng/ml of TNFα or 5 ng/ml of IL-1β for four or five days.
(§9) The efficacy of a monoclonal antibody (mAb) against human IL-6 in inhibition of proteoglycan degradation, NO production and PGE2 synthesis on human ARC tissues stimulated with IL-6 was also tested. Human ARC tissue were treated with 12.5, 25 and 250 ng/ml of IL-6 mAb diluted into chondrocyte stimulation medium. […]

[10] = tested on: cytokine-stimulated GAG release, human ARC tissues; experiment: human ARC tissues: GAG degradation; format: cell-based
Description: as §5, §7, §8, §9

[11] = at 1 ng/ml, TNFα stimulated responses

Compound: CNC(=O)[C@H](Cc1ccccc1)NC(=O)[C@H](CC(C)C)[C@H](CSc1cccs1)C(=O)NO [Batimastat]
- PGE2 synthesis, inhibition [1]: did not inhibit; also recorded: No effect

Compound: Nc1nc(Nc2ccc(S(N)(=O)=O)cc2)nn1C(=O)c1c(F)cccc1F [JNJ 7706621, 4-[5-Amino-1-(2,6-difluoro-benzoyl)-1H-[1,2,4]triazol-3-ylamino]-benzenesulfonamide]
- NO production [2]: completely blocked
- antitumor activity in human tumor xenograft models [3]: single agent antitumor activity
- cytotoxicity to chondrocytes (LDH, words) [4]: little toxicity
- IC50 [5]: 337 ± 123 nM
- GAG Release [6]: completely blocked
- PGE2 synthesis ([7]; ARC, 7.5 ng/ml IL-1, five days, JNJ 7706621 at 5 μM): little effect
- PGE2 Inhibition ([7]; Pellet Assay): No effect

Compound: REMICADE®: monoclonal antibody against human TNFα
- TNFα-induced NO production ([8]; 10 ng/ml TNFα): strongly inhibited
- NO Inhibition [8, 11]: 100% at
- TNFα-induced PGE2 synthesis ([9]; 10 ng/ml TNFα): strongly inhibited
- PGE2 Inhibition ([9]; at 1 ng/ml): 50% at 1 ng/ml
- PGE2 Inhibition ([9]; at 10 ng/ml): 100% at
- IL-1β stimulated responses (PGE2, NO, GAG; words) ([10]; 5 ng/ml IL-1β): little effect
- TNFα-induced GAG release ([10]; 10 ng/ml TNFα): strongly inhibited
- GAG Release, inhibition [10, 11]: 100% at 1 ng/ml
